Assay results from patent US9249129B2, “Morpholino substituted urea derivatives as mTOR inhibitors” (CELLZOME LIMITED, priority 2010, dated 2016).
Read-outs that look alike come from different tables or passages of the source.

Tests used:
[1] = biological target: T1, mTOR (Homo sapiens, UniProt P42345); assay: mTOR kinobeads assay (dot blot detection); format: binding
T1 construct: endogenous in cells; host or cells: Jurkat cells (ATCC TIB-152, clone E6-1), lysate
Description: (§1) The compounds of the present invention as described were tested in the mTOR kinobeads assay as described below. Briefly, test compounds (at various concentrations) and the affinity matrix (1:1 mixture of beads with immobilized phenylthiazole ligand 1 and beads with immobilized phenylmorpholin-chromen ligand; WO 2009/098021) were added to cell lysate aliquots and allowed to bind to the proteins in the lysate sample. After the incubation time the beads with captured proteins were separated from the lysate. Bound proteins were then eluted and the presence of mTOR, PI3K delta (PI3 Kd) and DNA-dependent protein kinase (DNA-PK) was detected and quantified using a specific antibody in a dot blot procedure and the Odyssey infrared detection system. Dose response curves for individual kinases were generated and IC50 values calculated. Kinobeads assays for PI3 kinases (WO-A 2008/015013) and for kinase selectivity profiling (WO 2009/098021) have been previously described.
(§2) The affinity matrix (beads with immobilized phenylmorpholin-chromen ligand) was washed two times with 15 ml of 1×DP buffer containing 0.2% NP40 (IGEPAL® CA-630, Sigma, #13021) and then resupended in 5.5 ml of 1×DP buffer containing 0.2% NP40 (10% beads slurry).
(§3) 5×DP buffer: 250 mM Tris-HCl pH 7.4, 25% Glycerol, 7.5 mM MgCl2, 750 mM NaCl, 5 mM Na3VO4, filter the 5×-lysis buffer through 0.22 μm filter and store in aliquots at −80° C. The 5×DP buffer is diluted to 1×DP buffer containing 1 mM DTT and 25 mM NaF.
(§4) Stock solutions of test compounds were prepared in DMSO. In a 96 well plate 30 μl solution of diluted test compounds at 5 mM in DMSO were prepared. Starting with this solution a 1:3 dilution series (9 steps) was prepared. For control experiments (no test compound) a buffer containing 2% DMSO was used. Compound CZC00018052 served as a positive control (PI-103; Calbiochem catalogue number 528100).
(§5) Jurkat cells (ATCC catalogue number TIB-152 Jurkat, clone E6-1) were grown in 1 litre Spinner flasks (Integra Biosciences, #182101) in suspension in RPMI 1640 medium (Invitrogen, #21875-034) supplemented with 10% Fetal Bovine Serum (Invitrogen) at a density between 0.15×10^6 and 1.2×10^6 cells/ml. Cells were harvested by centrifugation, washed once with 1×PBS buffer (Invitrogen, #14190-094) and cell pellets were frozen in liquid nitrogen and subsequently stored at −80° C.
(§6) Jurkat cells were homogenized in a Potter S homogenizer in lysis buffer: 50 mM Tris-HCl, 0.8% NP40, 5% glycerol, 150 mM NaCl, 1.5 mM MgCl2, 25 mM NaF, 1 mM sodium vanadate, 1 mM DTT, pH 7.5. One complete EDTA-free tablet (protease inhibitor cocktail, Roche Diagnostics, 1873580) per 25 ml buffer was added. The material was dounced 10 times using a mechanized POTTER S, transferred to 50 ml falcon tubes, incubated for 30 minutes on ice and spun down for 10 min at 20,000 g at 4° C. (10,000 rpm in Sorvall SLA600, precooled). The supernatant was transferred to an ultracentrifuge (UZ)-polycarbonate tube (Beckmann, 355654) and spun for 1 hour at 100.000 g at 4° C. (33.500 rpm in Ti50.2, precooled). The supernatant was transferred again to a fresh 50 ml falcon tube, the protein concentration was determined by a Bradford assay (BioRad) and samples containing 50 mg of protein per aliquot were prepared. The samples were immediately used for experiments or frozen in liquid nitrogen and stored frozen at −80° C.
(§7) Jurkat cell lysate (approximately 50 mg protein per plate) was thawed in a water bath at room temperature and then kept on ice. To the thawed cell lysate 1×DP 0.8% NP40 buffer containing protease inhibitors (1 tablet for 25 ml buffer; EDTA-free protease inhibitor cocktail; Roche Diagnostics 1873580) was added in order to reach a final protein concentration of 5 mg/ml total protein. The diluted cell lysate was stored on ice. […]

[2] = biological target: T2, PI3K delta (PI3Kd) (Homo sapiens, UniProt O00329); assay: kinobeads assay, PI3K delta (dot blot detection); format: binding
T2 construct: endogenous in cells; host or cells: Jurkat cells (ATCC TIB-152, clone E6-1), lysate
T2 sequence (O00329 whole entry): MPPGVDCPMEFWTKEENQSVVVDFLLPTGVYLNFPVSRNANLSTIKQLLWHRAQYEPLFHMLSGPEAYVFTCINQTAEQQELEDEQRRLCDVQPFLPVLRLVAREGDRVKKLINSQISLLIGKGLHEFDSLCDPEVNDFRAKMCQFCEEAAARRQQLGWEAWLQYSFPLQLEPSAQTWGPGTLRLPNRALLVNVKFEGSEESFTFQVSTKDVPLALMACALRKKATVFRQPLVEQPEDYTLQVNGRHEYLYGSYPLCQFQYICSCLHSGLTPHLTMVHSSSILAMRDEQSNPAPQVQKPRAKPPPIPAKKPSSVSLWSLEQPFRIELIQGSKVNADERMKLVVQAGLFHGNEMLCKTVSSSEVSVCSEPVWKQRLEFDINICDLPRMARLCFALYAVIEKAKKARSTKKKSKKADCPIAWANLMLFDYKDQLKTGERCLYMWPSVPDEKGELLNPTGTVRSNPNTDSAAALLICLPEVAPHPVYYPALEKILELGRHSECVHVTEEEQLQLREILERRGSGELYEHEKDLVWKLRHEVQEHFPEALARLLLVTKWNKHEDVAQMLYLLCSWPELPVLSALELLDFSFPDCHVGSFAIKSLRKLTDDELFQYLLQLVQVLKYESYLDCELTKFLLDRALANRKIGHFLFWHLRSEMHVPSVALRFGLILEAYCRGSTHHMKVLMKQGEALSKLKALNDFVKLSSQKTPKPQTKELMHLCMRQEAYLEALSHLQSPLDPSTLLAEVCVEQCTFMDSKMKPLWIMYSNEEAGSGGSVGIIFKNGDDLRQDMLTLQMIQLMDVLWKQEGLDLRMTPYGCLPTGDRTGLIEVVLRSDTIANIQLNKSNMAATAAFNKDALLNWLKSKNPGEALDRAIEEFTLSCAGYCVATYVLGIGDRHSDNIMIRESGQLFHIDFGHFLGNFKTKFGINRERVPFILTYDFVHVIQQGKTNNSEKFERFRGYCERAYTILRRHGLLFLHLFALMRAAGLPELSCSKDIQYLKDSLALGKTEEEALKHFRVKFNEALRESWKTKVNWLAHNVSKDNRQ
T2 sequence (P27986 whole entry partner): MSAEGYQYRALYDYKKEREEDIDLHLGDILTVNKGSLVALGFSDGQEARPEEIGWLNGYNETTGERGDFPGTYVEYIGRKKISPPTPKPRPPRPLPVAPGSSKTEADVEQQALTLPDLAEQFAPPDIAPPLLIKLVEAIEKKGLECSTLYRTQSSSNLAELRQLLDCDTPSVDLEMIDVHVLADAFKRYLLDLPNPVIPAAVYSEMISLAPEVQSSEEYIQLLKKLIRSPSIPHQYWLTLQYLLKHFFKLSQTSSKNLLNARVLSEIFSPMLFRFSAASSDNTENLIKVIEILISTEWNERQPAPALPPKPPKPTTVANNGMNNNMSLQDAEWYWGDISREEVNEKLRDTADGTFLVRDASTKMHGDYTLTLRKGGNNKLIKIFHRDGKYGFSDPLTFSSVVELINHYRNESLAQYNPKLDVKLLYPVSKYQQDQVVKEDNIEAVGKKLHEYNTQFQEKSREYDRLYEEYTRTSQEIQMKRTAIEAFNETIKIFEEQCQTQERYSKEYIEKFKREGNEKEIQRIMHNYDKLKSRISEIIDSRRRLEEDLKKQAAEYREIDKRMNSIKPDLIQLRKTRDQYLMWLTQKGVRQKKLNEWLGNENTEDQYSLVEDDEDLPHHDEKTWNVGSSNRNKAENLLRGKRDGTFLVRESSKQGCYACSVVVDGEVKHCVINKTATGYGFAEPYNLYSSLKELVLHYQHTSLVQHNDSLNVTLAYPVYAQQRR
Description: as §1, §2, §3, §4, §5, §6, §7

[3] = biological target: T3, DNA-dependent protein kinase (DNA-PK) (Homo sapiens, UniProt P78527); assay: kinobeads assay, DNA-PK (dot blot detection); format: binding
T3 construct: endogenous in cells; host or cells: Jurkat cells (ATCC TIB-152, clone E6-1), lysate
Description: as §1, §2, §3, §4, §5, §6, §7

[4] = biological target: T4, PI3Kα (Homo sapiens, UniProt P42336); assay: kinobeads assay, PI3K alpha (dot blot detection); format: binding; conditions: Table 4, read-out: Inhibition values (IC50) PI3Ka
T4 construct: endogenous in cells; host or cells: Jurkat cells (ATCC TIB-152) lysate, the only lysate described
T4 sequence (P42336 whole entry): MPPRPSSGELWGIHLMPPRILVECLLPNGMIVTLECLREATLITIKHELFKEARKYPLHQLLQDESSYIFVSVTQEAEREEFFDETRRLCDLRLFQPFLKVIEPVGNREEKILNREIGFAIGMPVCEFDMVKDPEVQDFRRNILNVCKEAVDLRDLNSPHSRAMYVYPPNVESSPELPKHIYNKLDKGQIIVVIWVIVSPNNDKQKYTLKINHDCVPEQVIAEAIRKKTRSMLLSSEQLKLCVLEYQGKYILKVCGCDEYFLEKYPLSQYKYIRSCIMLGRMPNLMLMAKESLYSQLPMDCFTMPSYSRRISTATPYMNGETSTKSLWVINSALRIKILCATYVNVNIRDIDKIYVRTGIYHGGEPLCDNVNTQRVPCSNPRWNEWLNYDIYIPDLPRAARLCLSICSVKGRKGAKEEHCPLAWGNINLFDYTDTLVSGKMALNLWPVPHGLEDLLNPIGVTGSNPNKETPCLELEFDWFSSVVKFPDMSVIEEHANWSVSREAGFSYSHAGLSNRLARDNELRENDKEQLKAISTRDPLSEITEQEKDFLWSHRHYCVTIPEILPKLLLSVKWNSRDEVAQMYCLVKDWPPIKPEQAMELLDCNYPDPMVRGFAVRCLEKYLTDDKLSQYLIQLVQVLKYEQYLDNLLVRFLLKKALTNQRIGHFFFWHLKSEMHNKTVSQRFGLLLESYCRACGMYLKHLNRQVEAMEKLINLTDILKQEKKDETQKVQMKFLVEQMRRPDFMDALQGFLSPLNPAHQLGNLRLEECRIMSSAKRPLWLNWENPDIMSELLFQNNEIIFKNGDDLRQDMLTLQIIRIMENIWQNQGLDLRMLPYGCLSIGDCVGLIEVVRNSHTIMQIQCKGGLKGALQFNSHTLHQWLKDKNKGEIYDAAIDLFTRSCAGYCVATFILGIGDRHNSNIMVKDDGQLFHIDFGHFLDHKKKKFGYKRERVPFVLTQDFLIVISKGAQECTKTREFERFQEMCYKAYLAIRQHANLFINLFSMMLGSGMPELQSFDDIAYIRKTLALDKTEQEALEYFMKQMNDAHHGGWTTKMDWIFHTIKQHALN
T4 sequence (P27986 whole entry partner): as the sequence (P27986 whole entry partner) above

[5] = biological target: T5, PI3Kβ (Homo sapiens, UniProt P42338); assay: kinobeads assay, PI3K beta (dot blot detection); format: binding; conditions: Table 4, read-out: Inhibition values (IC50) PI3Kb
T5 construct: endogenous in cells; host or cells: Jurkat cells (ATCC TIB-152) lysate, the only lysate described
T5 sequence (P42338 whole entry): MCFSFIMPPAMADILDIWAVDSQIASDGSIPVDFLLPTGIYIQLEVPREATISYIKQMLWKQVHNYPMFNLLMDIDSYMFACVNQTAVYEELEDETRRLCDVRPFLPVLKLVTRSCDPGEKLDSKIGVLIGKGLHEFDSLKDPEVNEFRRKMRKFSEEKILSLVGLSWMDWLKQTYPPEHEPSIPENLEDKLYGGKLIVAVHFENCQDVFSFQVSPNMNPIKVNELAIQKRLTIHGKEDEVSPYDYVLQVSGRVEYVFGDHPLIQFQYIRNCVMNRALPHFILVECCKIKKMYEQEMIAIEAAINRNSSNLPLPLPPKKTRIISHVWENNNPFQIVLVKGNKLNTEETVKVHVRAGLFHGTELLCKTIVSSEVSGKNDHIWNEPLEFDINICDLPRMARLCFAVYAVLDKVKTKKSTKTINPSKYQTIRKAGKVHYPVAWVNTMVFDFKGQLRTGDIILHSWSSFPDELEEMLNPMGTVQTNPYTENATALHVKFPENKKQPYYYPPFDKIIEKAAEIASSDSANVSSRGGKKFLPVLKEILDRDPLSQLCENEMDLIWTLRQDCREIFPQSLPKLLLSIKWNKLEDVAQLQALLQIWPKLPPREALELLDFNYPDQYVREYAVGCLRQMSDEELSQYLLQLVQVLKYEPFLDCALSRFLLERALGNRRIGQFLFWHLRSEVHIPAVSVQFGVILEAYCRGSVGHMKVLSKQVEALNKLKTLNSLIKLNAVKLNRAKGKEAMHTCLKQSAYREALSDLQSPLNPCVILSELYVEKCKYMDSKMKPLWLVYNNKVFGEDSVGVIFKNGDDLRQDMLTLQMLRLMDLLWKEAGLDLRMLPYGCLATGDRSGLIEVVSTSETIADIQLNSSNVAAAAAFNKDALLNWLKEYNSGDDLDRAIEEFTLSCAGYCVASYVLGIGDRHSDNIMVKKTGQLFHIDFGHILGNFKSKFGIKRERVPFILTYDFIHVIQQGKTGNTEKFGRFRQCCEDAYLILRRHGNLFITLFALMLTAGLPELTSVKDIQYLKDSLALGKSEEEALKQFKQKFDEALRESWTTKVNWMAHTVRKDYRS
T5 sequence (P27986 whole entry partner): as the sequence (P27986 whole entry partner) above

[6] = biological target: T6, PI3Kγ (Homo sapiens, UniProt P48736); assay: kinobeads assay, PI3K gamma (dot blot detection); format: binding; conditions: Table 4, read-out: Inhibition values (IC50) PI3Kg
T6 construct: endogenous in cells; host or cells: Jurkat cells (ATCC TIB-152) lysate, the only lysate described
T6 sequence (P48736 whole entry): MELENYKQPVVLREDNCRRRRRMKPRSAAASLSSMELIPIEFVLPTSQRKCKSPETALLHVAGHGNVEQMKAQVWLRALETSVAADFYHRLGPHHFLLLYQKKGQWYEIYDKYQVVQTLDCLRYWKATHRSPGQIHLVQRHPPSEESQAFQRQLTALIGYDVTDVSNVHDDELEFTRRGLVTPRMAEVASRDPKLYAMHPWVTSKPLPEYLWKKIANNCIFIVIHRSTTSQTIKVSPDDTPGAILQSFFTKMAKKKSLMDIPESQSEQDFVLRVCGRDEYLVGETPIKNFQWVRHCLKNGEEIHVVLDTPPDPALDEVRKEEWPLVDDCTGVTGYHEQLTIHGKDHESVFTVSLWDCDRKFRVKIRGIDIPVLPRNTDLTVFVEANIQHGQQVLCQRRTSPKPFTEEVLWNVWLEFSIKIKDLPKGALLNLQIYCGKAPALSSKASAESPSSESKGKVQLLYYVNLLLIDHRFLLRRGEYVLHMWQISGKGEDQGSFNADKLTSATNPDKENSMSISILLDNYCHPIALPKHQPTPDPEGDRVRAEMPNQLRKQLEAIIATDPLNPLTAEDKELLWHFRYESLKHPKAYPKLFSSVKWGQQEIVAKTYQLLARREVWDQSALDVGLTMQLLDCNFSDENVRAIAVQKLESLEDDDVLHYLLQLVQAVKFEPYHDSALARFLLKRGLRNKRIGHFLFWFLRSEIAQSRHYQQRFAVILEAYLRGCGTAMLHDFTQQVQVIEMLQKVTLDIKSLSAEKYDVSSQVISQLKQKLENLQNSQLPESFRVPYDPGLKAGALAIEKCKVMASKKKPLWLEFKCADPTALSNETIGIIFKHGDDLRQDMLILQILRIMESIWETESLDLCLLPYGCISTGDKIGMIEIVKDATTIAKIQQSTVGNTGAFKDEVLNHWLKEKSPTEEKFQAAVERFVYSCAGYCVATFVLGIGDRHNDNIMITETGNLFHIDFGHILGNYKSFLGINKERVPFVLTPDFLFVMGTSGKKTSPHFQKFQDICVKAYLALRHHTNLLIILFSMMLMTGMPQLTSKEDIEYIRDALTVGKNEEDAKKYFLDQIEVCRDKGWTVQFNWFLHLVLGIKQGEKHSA

[7] = tested on: S6RP serine-240/244 phosphorylation in HEK293T/17 cells; assay: In vitro phospho-S6 cellular assay (pS6RP S240/244); format: cell-based; conditions: Homo sapiens, Table 6, 2 hours, S6RP Ser240/244, read-out: pS6 (phospho-S6 cell assay data, activity level)
Excerpt: In Vitro Phospho-S6 and Phospho-Akt Cellular Assay
Activation of mTOR signaling results in phosphorylation of several downstream targets. In cells, mTOR exists in two different protein complexes. The mTOR Complex-1 (mTORC1) phosphorylates and activates S6 Kinase 1 (S6K1) and S6 Kinase 2 (S6K2) (also known as p70S6K) which then phosphorylate S6 Ribosomal Protein (S6RP) (also known as RPS6). S6RP is phosphorylated on serine 235, serine 236, serine 240 and serine 244 by both pS6K1 and pS6K2. The mTOR Complex-2 (mTORC2) phosphorylates AKT on serine 473 which activates the AKT signaling pathway.
The assay measures a test compound's inhibition of S6RP serine-240/244 phosphorylation and inhibition of Akt serine-473 phosphorylation in human embryonic kidney derived HEK293T/17 cells (ATCC CRL-11268).
The HEK293T/17 cell line is maintained in DMEM media (Invitrogen catalogue number 41965-039) supplemented with 10% FCS at 37° C. in a 5% CO2 humidified incubator.
Cells are seeded in 96-well plates at 40,000 cells/well (pS6RP S240/244 assay) or 80,000 cells/well (pAkt 5473 assay) in 90 μl growth media (DMEM, 2% FCS). Plates are incubated for 1 hour in a humidified incubator to allow the cells to adhere. Cells are treated with 8 concentrations of test compounds or DMSO alone for controls (final DMSO concentration 0.1%) and incubated at 37° C. for 2 hours. Then 20 μl of 5× concentrated lysis buffer (750 mM NaCl, 100 mM Tris pH7.4, 5 mM EDTA, 5 mM EGTA, 5% Triton X-100) is added, plates are sealed and incubated for 15 minutes at 4° C. with gentle shaking. After cell lysis, 25 μl cell lysate is transferred to a MesoScale plate coated with an antibody to pS6RP Ser240/244 (MesoScale Discovery K150DGD-3) or an antibody to pAkt Ser 473 (MesoScale Discovery K151DGD-3). Plates have been blocked before by incubation with 150 μl MesoScale Discovery Blocking Solution-A for 1 hour at room temperature followed by washing with 150 μl 1× Tris wash buffer per well. After the transfer of the cell lysate to the MSD plate, the pS6RP (or pAkt) protein is captured on the coated antibody by incubation at room temperature for 1 hour with gentle shaking. After the capture step the plate is washed three times with 150 μl of 1× Tris wash buffer per well. Then 25 μl detection antibody conjugated with a Sulfo-Tag is added and incubated for 1 hour at room temperature with gentle shaking. Subsequently the antibody solution is removed and the plate is washed 3 times with 150 μl 1× Tris wash buffer per well and 150 μl Read buffer is added. The plates are analysed on a MSD 2400 Plate Reader (MesoScale Discovery). Data analysis is performed using nonlinear regression for a sigmoidal dose-response with a variable slope.

[8] = Table 2, Jurkat cell lysate, read-out: Inhibition values (IC50) mTor
[9] = Table 4, read-out: Inhibition values (IC50) mTOR
[10] = Table 2, Jurkat cell lysate, read-out: Inhibition values (IC50) PI3Kd
[11] = Table 4, read-out: Inhibition values (IC50) PI3Kd
[12] = Table 2, Jurkat cell lysate, read-out: Inhibition values (IC50) DNAPK
[13] = Table 4, read-out: Inhibition values (IC50) DNAPK

Row | SMILES | IC50 [1, 8] [µM] | IC50 [1, 9] [µM] | IC50 [2, 10] [µM] | IC50 [2, 11] [µM] | IC50 [3, 12] [µM] | IC50 [3, 13] [µM] | IC50 [4] [µM] | IC50 [5] [µM] | IC50 [6] [µM] | IC50 [7] [µM]
1 | O=C(NCCO)Nc1ccc(-c2ccnc(N3CC4CCC(C3)O4)n2)cc1 [Example 59, 1-(4-(2-(8-oxa-3-azabicyclo[3.2.1]octan-3-yl)pyrimidin-4-yl)phenyl)-3-(2-hydroxyethyl)urea] | 1 to 10 | 1 to 10 | ≥ 10 | ≥ 10 | ≥ 10 | ≥ 10 | ≥ 10 | ≥ 10 | ≥ 10 | 0.1 to 1
2 | C[C@H]1COCCN1c1ccnc(-c2ccc(NC(=O)NC3CC3)cc2)n1 [Example 35, (S)-1-cyclopropyl-3-(4-(4-(3-methylmorpholino)pyrimidin-2-yl)phenyl)urea] | 0.1 to 1 | 0.1 to 1 | ≥ 10 | ≥ 10 | ≥ 10 | ≥ 10 | ≥ 10 | ≥ 10 | ≥ 10 | 0.1 to 1
3 | CCNC(=O)Nc1ccc(-c2cc(-c3cncc(S(C)(=O)=O)c3)nc(N3CCOC[C@@H]3C)n2)cc1 [Example 15, (S)-1-ethyl-3-(4-(2-(3-methylmorpholino)-6-(5-(methylsulfonyl)pyridin-3-yl)pyrimidin-4-yl)phenyl)urea] | 1 to 10 | 1 to 10 | ≥ 10 | ≥ 10 | ≥ 10 | ≥ 10 | ≥ 10 | ≥ 10 | ≥ 10 | 0.1 to 1
4 | C[C@H]1COCCN1c1nc(-c2ccc(NC(=O)NCCN)cc2)cc(-c2cc(F)ccc2S(C)(=O)=O)n1 [Example 84, (S)-1-(2-aminoethyl)-3-(4-(6-(5-fluoro-2-(methylsulfonyl)phenyl)-2-(3-methylmorpholino)pyrimidin-4-yl)phenyl)urea] | – | 0.1 to 1 | – | ≥ 10 | – | ≥ 10 | ≥ 10 | ≥ 10 | ≥ 10 | 1 to 10

Second part, led by results:

Row | IC50 [1, 8] [µM] | IC50 [1, 9] [µM] | IC50 [2, 10] [µM] | IC50 [2, 11] [µM] | IC50 [3, 12] [µM] | IC50 [3, 13] [µM] | IC50 [4] [µM] | IC50 [5] [µM] | IC50 [6] [µM] | SMILES | IC50 [7] [µM]
5 | 1 to 10 | 1 to 10 | ≥ 10 | ≥ 10 | ≥ 10 | ≥ 10 | ≥ 10 | ≥ 10 | ≥ 10 | C[C@H]1COCCN1c1nccc(-c2ccc(NC(=O)NC3CC3)cc2)n1 [Example 39, (S)-1-cyclopropyl-3-(4-(2-(3-methylmorpholino)pyrimidin-4-yl)phenyl)urea] | 0.1 to 1
6 | 1 to 10 | 0.1 to 1 | ≥ 10 | ≥ 10 | 1 to 10 | 1 to 10 | 1 to 10 | 1 to 10 | ≥ 10 | CCNC(=O)Nc1ccc(-c2ccnc(N3CCOCC3)n2)cc1 [Example 29, 1-ethyl-3-(4-(2-morpholinopyrimidin-4-yl)phenyl)urea] | 0.1 to 1
7 | 1 to 10 | 1 to 10 | ≥ 10 | ≥ 10 | ≥ 10 | ≥ 10 | ≥ 10 | ≥ 10 | ≥ 10 | CCNC(=O)Nc1ccc(-c2ccnc(N3CC4CCC(C3)O4)n2)cc1 [Example 56, 1-(4-(2-(8-oxa-3-azabicyclo[3.2.1]octan-3-yl)pyrimidin-4-yl)phenyl)-3-ethylurea] | 0.1 to 1
8 | 0.1 to 1 | 0.1 to 1 | ≥ 10 | ≥ 10 | 1 to 10 | 1 to 10 | ≥ 10 | ≥ 10 | ≥ 10 | O=C(NCC(F)F)Nc1ccc(-c2nccc(N3CC4CCC(C3)O4)n2)cc1 [Example 51, 1-(4-(4-(8-oxa-3-azabicyclo[3.2.1]octan-3-yl)pyrimidin-2-yl)phenyl)-3-(2,2-difluoroethyl)urea] | 0.1 to 1
9 | < 0.1 | < 0.1 | 1 to 10 | 1 to 10 | ≥ 10 | ≥ 10 | 1 to 10 | 1 to 10 | ≥ 10 | C[C@H]1COCCN1c1nc(-c2ccc(NC(=O)NC3CC3)cc2)cc(-c2cccnc2[S+](C)[O-])n1 (stereo partly drawn) [Example 45, 1-cyclopropyl-3-(4-(2-((S)-3-methylmorpholino)-6-(2-(methylsulfinyl)pyridin-3-yl)pyrimidin-4-yl)phenyl)urea] | 0.1 to 1
